Experimental data taken from the supplement of paper PMC11061612.

Tests used:
Experiment in all cases: combination Emax (second highest fraction inhibited in the dose matrix, 72 h); higher = more inhibition; extreme values may be limits of the assay
[1] = test system: NCI-H1650 (Lung Adenocarcinoma)
Method in brief: (§1)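 Cell lines grown in DMEM/F12 or RPMI with 10% FBS were plated in 1536-well plates and held 24 hours at 37°C, 5% CO2 before 72 hours of exposure to two-drug dose matrices, with DMSO typically at 0.2%. CellTiter-Glo 2.0 luminescence gave viability, which was converted to inhibition. Vehicle wells were set to 0 and blank wells to 1. Combination Emax is the second-highest inhibition in the matrix, and Bliss excess is the observed combination effect minus the expected EA + EB − EA·EB, where EA and EB are the single-agent effects.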

[2] = test system: TT (Thyroid Gland Carcinoma)
Method in brief: as §1

[3] = test system: NCI-H1693 (Lung Adenocarcinoma)
Method in brief: as §1

FU97 (Gastric Carcinoma) = test system: FU97 (Gastric Carcinoma)
Method in brief: as §1

[4] = test system: SK-MES-1 (Squamous Cell Lung Carcinoma)
Method in brief: as §1

NCI-H2591 (Mesothelioma) = test system: NCI-H2591 (Mesothelioma)
Method in brief: as §1

[5] = test system: VCaP (Prostate Carcinoma)
Method in brief: as §1

[6] = test system: OS-RC-2 (Kidney Carcinoma)
Method in brief: as §1

[7] = test system: NCI-H2066 (Squamous Cell Lung Carcinoma)
Method in brief: as §1

[8] = test system: ONS-76 (Other Solid Carcinomas)
Method in brief: as §1

NY (Osteosarcoma) = test system: NY (Osteosarcoma)
Method in brief: as §1

[9] = test system: COLO-320-HSR (Colorectal Carcinoma)
Method in brief: as §1

[10] = test system: NCI-H1666 (Lung Adenocarcinoma)
Method in brief: as §1

ARH-77 (Non-Cancerous) = test system: ARH-77 (Non-Cancerous)
Method in brief: as §1

[11] = test system: HCC1954 (Breast Carcinoma)
Method in brief: as §1

[12] = test system: SK-MG-1 (Low Grade Glioma)
Method in brief: as §1

[13] = test system: A3-KAW (B-Cell Non-Hodgkin's Lymphoma)
Method in brief: as §1

[14] = test system: NCI-H64 (Small Cell Lung Carcinoma)
Method in brief: as §1

[15] = test system: SISO (Cervical Carcinoma)
Method in brief: as §1

[16] = test system: ECC10 (Gastric Carcinoma)
Method in brief: as §1

SMILES | combination Emax [1] | combination Emax [2] | combination Emax [3] | combination Emax (FU97 (Gastric Carcinoma)) | combination Emax [4] | combination Emax (NCI-H2591 (Mesothelioma)) | combination Emax [5] | combination Emax [6] | combination Emax [7] | combination Emax [8] | combination Emax (NY (Osteosarcoma)) | combination Emax [9] | combination Emax [10] | combination Emax (ARH-77 (Non-Cancerous)) | combination Emax [11] | combination Emax [12] | combination Emax [13] | combination Emax [14] | combination Emax [15] | combination Emax [16]
COc1nnc2ccc(N3CCC(c4ccc(OCCN5CCN(C)C(=O)[C@H]5C)cc4)CC3)nn12 [AZD5153] + CC1(C)CCC(CN2CCN(c3ccc(C(=O)NS(=O)(=O)c4ccc(NCC5CCOCC5)c([N+](=O)[O-])c4)c(Oc4cnc5[nH]ccc5c4)c3)CC2)=C(c2ccc(Cl)cc2)C1 [Venetoclax] (first compound max 1 µM, 7x7, partner max 1 µM) | 0.394 | 0.596 | 0.514 | 0.754 | 0.472 | 0.331 | 0.777 | 0.273 | 0.338 | 0.538 | 0.542 | 0.442 | 0.439 | 0.861 | 0.152 | 0.425 | 1 | 0.226 | 0.33 | 0.985
COc1nnc2ccc(N3CCC(c4ccc(OCCN5CCN(C)C(=O)[C@H]5C)cc4)CC3)nn12 [AZD5153] + CCN(CCO)CCCOc1ccc2c(Nc3cc(CC(=O)Nc4cccc(F)c4)[nH]n3)ncnc2c1 [AZD2811] (first compound max 1 µM, 7x7, partner max 1 µM) | 0.415 | 0.692 | 0.46 | 0.766 | 0.507 | 0.429 | 0.789 | 0.304 | 0.344 | 0.56 | 0.517 | 0.503 | 0.432 | 0.82 | 0.263 | 0.566 | 1 | 0.609 | 0.486 | 0.884
COc1nnc2ccc(N3CCC(c4ccc(OCCN5CCN(C)C(=O)[C@H]5C)cc4)CC3)nn12 [AZD5153] + C[C@@H]1COCCN1C2=NC(=NC(=C2)C3(CC3)[S@](=N)(=O)C)C4=C5C=CNC5=NC=C4 [AZD6738] (first compound max 1 µM, 7x7, partner max 10 µM) | 0.509 | 0.629 | 0.597 | 0.839 | 0.769 | 0.558 | 0.839 | 0.467 | 0.41 | 0.747 | 0.627 | 0.719 | 0.493 | 0.991 | 0.657 | 0.595 | 1 | 0.927 | 0.757 | 0.916
COc1nnc2ccc(N3CCC(c4ccc(OCCN5CCN(C)C(=O)[C@H]5C)cc4)CC3)nn12 [AZD5153] + Cc1c2c(nn1C)CSCc1cc(n(C)n1)CSc1cc(c3ccccc3c1)OCCCc1c(C(=O)O)n(C)c3c-2c(Cl)ccc13 [AZD5991] (first compound max 1 µM, 7x7, partner max 1 µM) | 0.441 | 0.623 | 0.56 | 0.95 | 0.558 | 0.368 | 0.988 | 0.372 | 0.35 | 0.497 | 0.688 | 0.89 | 0.423 | 0.831 | 0.956 | 0.425 | 1 | 0.399 | 0.508 | 1
COc1nnc2ccc(N3CCC(c4ccc(OCCN5CCN(C)C(=O)[C@H]5C)cc4)CC3)nn12 [AZD5153] + Cn1cnc2c(F)c(Nc3ccc(Br)cc3Cl)c(C(=O)NOCCO)cc21 [Selumetinib] (first compound max 1 µM, 7x7, partner max 10 µM) | 0.441 | 0.524 | 0.569 | 0.701 | 0.717 | 0.629 | 0.797 | 0.343 | 0.345 | 0.697 | 0.52 | 0.333 | 0.558 | 0.839 | 0.263 | 0.467 | 1 | 0.237 | 0.452 | 0.955
Cc1c2c(nn1C)CSCc1cc(n(C)n1)CSc1cc(c3ccccc3c1)OCCCc1c(C(=O)O)n(C)c3c-2c(Cl)ccc13 [AZD5991] + C1CN(CCC1(C(=O)N[C@@H](CCO)C2=CC=C(C=C2)Cl)N)C3=NC=NC4=C3C=CN4 [Capivasertib] (first compound max 1 µM, 7x7, partner max 3 µM) | 0.41 | 0.366 | 0.164 | 0.485 | 0.262 | 0.191 | 1 | 0.256 | 0.424 | 0.249 | 0.492 | 0.845 | 0.274 | 0.915 | 0.996 | 0.444 | 1 | 0.378 | 0.173 | 0.721
Cc1c2c(nn1C)CSCc1cc(n(C)n1)CSc1cc(c3ccccc3c1)OCCCc1c(C(=O)O)n(C)c3c-2c(Cl)ccc13 [AZD5991] + C=CCn1c(=O)c2cnc(Nc3ccc(N4CCN(C)CC4)cc3)nc2n1-c1cccc(C(C)(C)O)n1 [AZD1775] (first compound max 1 µM, partner max 1 µM) | 0.548 | 0.428 | 0.386 | 0.436 | 0.593 | 0.266 | 0.916 | 0.303 | 0.256 | 0.584 | 0.747 | 0.801 | 0.338 | 0.995 | 0.978 | 0.783 | 1 | 0.933 | 0.663 | 0.858
Cc1c2c(nn1C)CSCc1cc(n(C)n1)CSc1cc(c3ccccc3c1)OCCCc1c(C(=O)O)n(C)c3c-2c(Cl)ccc13 [AZD5991] + CC1(C)CCC(CN2CCN(c3ccc(C(=O)NS(=O)(=O)c4ccc(NCC5CCOCC5)c([N+](=O)[O-])c4)c(Oc4cnc5[nH]ccc5c4)c3)CC2)=C(c2ccc(Cl)cc2)C1 [Venetoclax] (first compound max 1 µM, 7x7, partner max 1 µM) | 0.184 | 0.83 | 0.143 | 0.243 | 0.146 | 0.154 | 0.913 | 0.133 | 0.169 | 0.211 | 0.729 | 0.841 | 0.242 | 0.859 | 0.967 | 0.178 | 1 | 0.359 | 0.151 | 1
Cc1c2c(nn1C)CSCc1cc(n(C)n1)CSc1cc(c3ccccc3c1)OCCCc1c(C(=O)O)n(C)c3c-2c(Cl)ccc13 [AZD5991] + CCN(CCO)CCCOc1ccc2c(Nc3cc(CC(=O)Nc4cccc(F)c4)[nH]n3)ncnc2c1 [AZD2811] (first compound max 1 µM, 7x7, partner max 1 µM) | 0.269 | 0.574 | 0.211 | 0.284 | 0.408 | 0.265 | 0.94 | 0.21 | 0.304 | 0.386 | 0.48 | 0.827 | 0.334 | 0.904 | 0.98 | 0.465 | 1 | 0.788 | 0.808 | 0.957
Cc1c2c(nn1C)CSCc1cc(n(C)n1)CSc1cc(c3ccccc3c1)OCCCc1c(C(=O)O)n(C)c3c-2c(Cl)ccc13 [AZD5991] + CN(C)CCCOc1ccc(-c2ccc3ncc4c(c3c2)n(C2CCOCC2)c(=O)n4C)cn1 [AZD0156] (first compound max 1 µM, 7x7, partner max 1 µM) | 0.2 | 0.297 | 0.211 | 0.318 | 0.196 | 0.185 | 0.913 | 0.25 | 0.234 | 0.239 | 0.399 | 0.888 | 0.238 | 0.867 | 0.978 | 0.539 | 1 | 0.346 | 0.201 | 0.66
Cc1c2c(nn1C)CSCc1cc(n(C)n1)CSc1cc(c3ccccc3c1)OCCCc1c(C(=O)O)n(C)c3c-2c(Cl)ccc13 [AZD5991] + C[C@@H]1COCCN1C2=NC(=NC(=C2)C3(CC3)[S@](=N)(=O)C)C4=C5C=CNC5=NC=C4 [AZD6738] (first compound max 1 µM, 7x7, partner max 10 µM) | 0.516 | 0.56 | 0.432 | 0.392 | 0.785 | 0.392 | 0.947 | 0.363 | 0.359 | 0.821 | 0.805 | 0.97 | 0.322 | 0.976 | 0.991 | 0.566 | 1 | 0.905 | 0.607 | 0.766
Cc1c2c(nn1C)CSCc1cc(n(C)n1)CSc1cc(c3ccccc3c1)OCCCc1c(C(=O)O)n(C)c3c-2c(Cl)ccc13 [AZD5991] + C[C@@H](Nc1cc(F)cc(F)c1)c1cc(C(=O)N(C)C)cc2c(=O)cc(N3CCOCC3)oc12 [AZD8186] (first compound max 1 µM, 7x7, partner max 3 µM) | 0.297 | 0.394 | 0.236 | 0.445 | 0.381 | 0.196 | 0.935 | 0.471 | 0.343 | 0.244 | 0.631 | 0.907 | 0.386 | 0.928 | 0.974 | 0.648 | 1 | 0.406 | 0.123 | 0.721
